Measured values as given in US20050080103A1, “Procedure for asthmatic, and other non-invasive surgery for brain tumor cures” (priority 2003, published 2005).
Entries after “also recorded” stand apart in the source; their conditions may differ.

Tested on: asthma (attributed by the author to a brain tumor)
Assay: Self-treatment of the inventor's asthma by repeated deep inhalation of evaporated free base cocain
Conditions: inventor's self-report

COC(=O)[C@H]1[C@@H](OC(=O)c2ccccc2)C[C@@H]2CC[C@H]1N2C [cocain]
Outcome on asthma / asthma attacks (one person, evaporated free base piece about 1/10 gram inhaled once per half hour, 32 sessions over 16 hours, outcome realized 4 months later): effected the cure of my asthma; also recorded: not getting any more asthma attacks | Time until the metabolic use of one inhaled dose came to an end (session duration) (one full deep breath of evaporated free base cocain per session): approximately one half
